Measurements: patent US20210283098A1, “Methods and Compositions for Treating Pain and Itch” (YISSUM RESEARCH DEVELOPMENT COMPANY OF THE HEBREW …, priority 2018, published 2021)
Like-named read-outs stand apart in the source and are kept apart here.

Assays:
TRPV1-HEK-293 cells [1] = conditions: 1% QX-314, 24 hour treatment; Stueber et al., Anesthesiology, 2016; cited from earlier work
TRPV1-HEK-293 cells [2] = test: Cell viability by double staining with PI and FITC annexin V; assay type: cell-based
Description: Similar treatment with 1 μg/μl capsaicin lead, after 24 hours, to death of more than 50% of cells. […] Representative of 5 experiments. FIG. 4B is a bar graph summarizing the number of dead TRPV1-HEK-293 cells without any treatment (white), treated with 2% chloroprocaine (grey) or 1 μg/μl capsaicin (black) at the indicated time points.

male Sprague-Dawley rats [3] = test: Motor function score after peri-sciatic injection; assay type: in vivo, rat
TRPV1 channels = target: T1, TRPV1 channels (Homo sapiens, UniProt Q8NER1); test: Calcium imaging (Fura-2) in HEK-293 cells stably expressing hTRPV1; assay type: cell-based; conditions: hTRPV1-HEK-293; chloroprocaine 1-5 mM bath applied 120 s; capsaicin short (5 s) focal application
T1 construct: expressed in transfected cells
T1 sequence (Q8NER1 whole entry): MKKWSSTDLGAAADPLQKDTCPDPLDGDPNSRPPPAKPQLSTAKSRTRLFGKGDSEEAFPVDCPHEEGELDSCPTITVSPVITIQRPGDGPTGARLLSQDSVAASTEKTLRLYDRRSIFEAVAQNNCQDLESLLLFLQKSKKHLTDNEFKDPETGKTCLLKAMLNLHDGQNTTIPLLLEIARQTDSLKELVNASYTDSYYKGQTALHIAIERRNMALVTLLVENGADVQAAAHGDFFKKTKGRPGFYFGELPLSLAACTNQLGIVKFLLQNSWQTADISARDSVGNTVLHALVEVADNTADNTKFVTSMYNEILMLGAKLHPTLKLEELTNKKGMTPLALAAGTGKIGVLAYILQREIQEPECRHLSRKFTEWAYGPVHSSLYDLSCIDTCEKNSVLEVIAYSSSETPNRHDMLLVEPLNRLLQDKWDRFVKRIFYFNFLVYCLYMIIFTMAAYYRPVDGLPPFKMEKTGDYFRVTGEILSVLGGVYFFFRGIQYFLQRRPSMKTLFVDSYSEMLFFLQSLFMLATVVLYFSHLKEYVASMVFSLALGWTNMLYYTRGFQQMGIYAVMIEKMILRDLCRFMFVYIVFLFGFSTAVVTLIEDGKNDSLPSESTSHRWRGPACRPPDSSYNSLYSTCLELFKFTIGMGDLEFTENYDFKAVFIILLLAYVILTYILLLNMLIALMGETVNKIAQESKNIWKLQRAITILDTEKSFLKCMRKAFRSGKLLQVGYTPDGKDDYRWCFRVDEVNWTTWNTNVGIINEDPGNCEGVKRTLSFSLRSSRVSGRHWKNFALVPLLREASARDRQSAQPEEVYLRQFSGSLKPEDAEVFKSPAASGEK
Description: To that end, we performed calcium imaging experiments on HEK-293 cells which stably express TRPV1 and TRPA1 using HEK-293t cells for control. The cells were cultured in standard DMEM with 10% FBS, 100 U/ml penicillin and 100 μg/ml streptomycin and 2 mM Glutamax. 5 μg/ml blasticidin and 0.35% Zeocin were added for stable expression of hTRPV1 and for induction tetracycline 0.1 μg/ml was added to the medium 16 to 24 hours prior to experiments. Cells were cultivated at 37° C. and 5% CO2 and prepared on Poly-D-Lysin coated coverslips and were loaded with Fura-2 AM (stock in DMSO), for 45-60 minutes in a bath solution composed of (in mM): 145 NaCl, 5 KCl, 2 CaCl2, 1 MgCl2, 10 Glucose, 10 HEPES. They were then rinsed for 45-60 minutes for de-esterification of intracellular AM esters. Intracellular [Ca^2+]i was measured fluoroimetrically as ratiometric excitation at 340 nm and 380 nm (ΔF340/380, emission collected at 510 nm) using an inverted microscope (Nikon Eclipse Ti), equipped with an Epi-Fl attachment; perfect focus system (Nikon, Japan) and Exi Aqua monochromator (QImaging). […] A PV-820 Pneumatic PicoPump (WPI) was used for short (5 s) focal applications of capsaicin. Immediately after the puff application, capsaicin was washed out by perfusing with external solution.

male Sprague-Dawley rats [4] = test: Thermal paw withdrawal latency from radiant heat source (Hargreaves) after peri-sciatic injection; assay type: in vivo, rat
[5] = cited from earlier work
cannabinoid CB2 receptor = cannabinoid CB2 receptor (Homo sapiens, UniProt P34972); conditions: cited from earlier work
cannabinoid CB2 receptor, sequence (P34972 whole entry): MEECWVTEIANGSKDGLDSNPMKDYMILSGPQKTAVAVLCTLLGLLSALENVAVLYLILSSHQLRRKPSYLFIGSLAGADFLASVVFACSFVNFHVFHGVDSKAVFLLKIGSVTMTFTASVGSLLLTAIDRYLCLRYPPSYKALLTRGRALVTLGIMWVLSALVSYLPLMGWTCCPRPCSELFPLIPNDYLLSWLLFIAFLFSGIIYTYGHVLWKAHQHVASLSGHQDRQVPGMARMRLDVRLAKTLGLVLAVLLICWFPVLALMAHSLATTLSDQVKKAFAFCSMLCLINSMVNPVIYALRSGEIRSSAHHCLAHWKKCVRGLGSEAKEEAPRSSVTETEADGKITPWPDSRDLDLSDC

CC[N+](CC)(CC)CC(=O)Nc1c(C)cccc1C [QX-314]
cell death (TRPV1-HEK-293 cells [1]): 55%

CCN(CC)CCOC(=O)c1ccc(N)cc1Cl [chloroprocaine]
cell death (TRPV1-HEK-293 cells [2]; 2% chloroprocaine, 24 hours treatment): does not cause cell death
duration of motor block (male Sprague-Dawley rats [3]; Example 2, peri-sciatic injection, 0.5% chloroprocaine alone): 30 min
duration of motor block (male Sprague-Dawley rats [3]; Example 6, peri-sciatic, 0.5% chloroprocaine with 1% CBD or with vehicle for CBD): 30 min
change in intracellular calcium (Fura-2 fluorescence) (TRPV1 channels): does not induce calcium influx
differential block (male Sprague-Dawley rats [4]; 0.5% chloroprocaine alone, same motor and pain block): no differential block
effect on response to noxious heat (PWL normalized to baseline) (male Sprague-Dawley rats [4]; Example 2, peri-sciatic, 0.5% chloroprocaine, 1 μg/μl capsaicin, 52° C.): does not affect the response to noxious heat
duration of inhibition of response to noxious heat (male Sprague-Dawley rats [4]; Example 6, 0.5% chloroprocaine with vehicle for CBD): about 30 min

CCCCNc1ccc(C(=O)OCCN(C)C)cc1 [tetracaine]
pKa [5]: 8.2

C=C(C)[C@@H]1CCC(C)=C[C@H]1c1c(O)cc(CCCCC)cc1O [CBD, 2-[(1R,6R)-6-isopropenyl-3-methylcyclohex-2-en-1-yl]-5-pentylbenzene-1,3-diol]
effect on response to noxious stimuli and motor abilities (male Sprague-Dawley rats [3]; Example 6, 1% CBD alone): did not affect either response to noxious stimuli or motor abilities at all
effect on pain behavior (male Sprague-Dawley rats [4]; Example 6, saline with 1% CBD): did not affect pain behavior
affinity for CB2 receptor (cannabinoid CB2 receptor): very low affinity

COc1cc(CNC(=O)CCCC/C=C/C(C)C)ccc1O [capsaicin]
death of cells (TRPV1-HEK-293 cells [2]; 1 μg/μl capsaicin, 24 hours): more than 50%
change in intracellular calcium (Fura-2 fluorescence) (TRPV1 channels): substantial increase in FURA-2 fluorescence
